Legend:
[1] = molecular target: T1, Brd4 bromodomain 1 (BRD4(1)) (Homo sapiens, UniProt O60885); test: Inhibition of tetra-acetylated histone H4 binding to Brd4 bromodomain 1 (TR-FRET); set-up: key: Active: Compounds with an IC50 value less than 30 μM were deemed to be active.; Not Active: Compounds with an IC50 value less than 30 μM were deemed to be active; conditions: tetra-acetylated histone H4 peptide, active = IC50 <30 μM
T1 construct: Illustrative results with the first bromodomain of Brd4; made in house; host or cells: E. coli BL21 (DE3)
In short: (§1)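 IC50 values come from dose-response curves of the 665 nm to 620 nm TR-FRET signal decrease, measured after 2 h at room temperature. Reactions contained 200 nM E. coli-expressed His-tagged bromodomain, 25-50 nM biotinylated tetra-acetylated H4 peptide, Eu-streptavidin plus XL665 anti-His antibody, with 30 mM HEPES pH 7.4, 320 mM KF and 0.2% DMSO.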

[2] = molecular target: T2, second bromodomain of Brd2 (BRD2(2)) (Homo sapiens, UniProt P25440); test: Inhibition of tetra-acetylated histone H4 binding to Brd2 bromodomain 2 (TR-FRET); set-up: key: Active: Compounds with an IC50 value less than 30 μM were deemed to be active.; Not Active: Compounds with an IC50 value less than 30 μM were deemed to be active; conditions: tetra-acetylated histone H4 peptide, active = IC50 <30 μM
T2 construct: made in house; host or cells: E. coli BL21 (DE3)
In short: as §1

[3] = tested on: hIL-6 mRNA; test: Inhibition of hIL-6 mRNA transcription in U937 cells; type: cell-based, human; set-up: key: Active: Compounds with an IC50 value less than 30 μM were deemed to be active.; Not Active: Compounds with an IC50 value less than 30 μM were deemed to be active; conditions: LPS stimulation, active = IC50 <30 μM
In short: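 Readout is one-step real-time PCR of hIL-6 mRNA, normalized to an internal control and given as fold induction versus control. Cells: PMA (60 ng/mL, 3 days)-differentiated U937 macrophages, compound added 1 h before 1 ug/mL LPS, harvested after 3 h at 37° C.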

[4] = tested on: ApoA-I mRNA; test: Up-regulation of hApoA-1 mRNA transcription in Huh7 cells; type: cell-based, human; set-up: key: Active: Compounds with an EC170 value less than 30 μM were deemed to be active; conditions: 48 h treatment, ApoA-I mRNA by real-time PCR, Active = EC170 less than 30 μM
Description: In this example, ApoA-I mRNA in tissue culture cells was quantitated to measure the transcriptional up-regulation of ApoA-I when treated with a compound of the present disclosure.
Huh7 cells (2.5×10^5 per well) were plated in a 96-well plate using 100 μL DMEM per well, (Gibco DMEM supplemented with penicillin/streptomycin and 10% FBS), 24 h before the addition of the compound of interest. After 48 h treatment, the spent media was removed from the Huh-7 cells and placed on ice (for immediate use) or at −80° C. (for future use) with the “LDH cytotoxicity assay Kit II” from Abcam. The cells remaining in the plate were rinsed with 100 μL PBS.
Then 85 μL of cell lysis solution was added to each well and incubated for 5-10 min at room temperature, to allow for complete cell lysis and detachment. mRNA was then prepared using the “mRNA Catcher PLUS plate” from Life Technologies, according to the protocol supplied. After the last wash, as much wash buffer as possible was aspirated without allowing the wells to dry. Elution Buffer (E3, 80 μL) was then added to each well. mRNA was then eluted by incubating the mRNA Catcher PLUS plate with Elution Buffer for 5 min at 68° C., and then 1 min at 4° C. Catcher plates with mRNA eluted were kept on ice for use or stored at −80° C.
The eluted mRNA isolated was then used in a one-step real-time PCR reaction, using components of the Ultra Sense Kit together with Life Technologies primer-probe mixes. Real-time PCR data was analyzed, using the Ct values, to determine the fold induction of each unknown sample, relative to the control (that is, relative to the control for each independent DMSO concentration).
Compounds with an EC170 value less than 30 μM were deemed to be active.

[5] = tested on: human AML MV-4-11 (CRL-9591) cells; test: Inhibition of cell proliferation in MV4-11 cells; type: cell-based; set-up: key: Active: Compounds with an IC50 value less than 30 μM were deemed to be active.; Not Active: Compounds with an IC50 value less than 30 μM were deemed to be active; conditions: human AML MV-4-11 cells, 72 h; active = IC50 <30 μM
In short: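 IC50 values come from blank-corrected proliferation relative to DMSO controls, read as 490 nm absorbance 3–4 h after CellTiter Aqueous One addition. Before that, cells seeded at 5×10^4/well were exposed for 72 h (37° C, 5% CO2) to triplicate two-fold compound dilutions spanning 30–0.2 μM.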

[6] = tested on: c-myc; test: Inhibition of c-myc expression in MV4-11 cells (mRNA, real-time PCR); type: cell-based; set-up: key: Active: Compounds with an IC50 value less than 30 μM were deemed to be active.; Not Active: Compounds with an IC50 value less than 30 μM were deemed to be active; conditions: Human AML MV4-11 cells, 3 h incubation
In short: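 Duplex RT-qPCR of c-myc against cyclophilin cDNA gave IC50 from a dose–response curve. Input was isolated mRNA from 2.5×10^4 MV4-11 cells after 3 h exposure at 37 °C to compound or 0.1% DMSO vehicle.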

T2 sequence (P25440 344-453 limits assumed): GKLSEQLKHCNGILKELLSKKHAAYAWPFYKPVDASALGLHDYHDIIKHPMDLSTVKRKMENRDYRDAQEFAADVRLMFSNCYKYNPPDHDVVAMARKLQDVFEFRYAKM

SMILES	FRET activity (IC50 <30 μM) BRD4(1) [1]	FRET activity (IC50 <30 μM) BRD2(2) [2]	IL-6 activity (IC50 <30 μM) [3]	Cell Proliferation activity (IC50 <30 μM) [5]	c-myc activity (IC50 <30 μM) [6]	ApoA-1 activity (EC170 <30 μM) [4]
Cc1noc(C)c1-c1ccc(=O)n([C@H](C)c2ccc(F)cc2)c1 (single isomer, unassigned) [Example 111]	Active	Active	Active			Active
Cc1noc(C)c1-c1cn(Cc2ccccc2)c(=O)cn1 [Example 6, 1-Benzyl-5-(3,5-dimethylisoxazol-4-yl)pyrazin-2(1H)-one]	Active	Active	Active	Active		Active
Cc1noc(C)c1-c1ccc(=O)n(Cc2ccc(C(F)(F)F)cc2)c1 [Example 7, 5-(3,5-Dimethylisoxazol-4-yl)-1-(4-(trifluoromethyl)benzyl)pyridin-2(1H)-one]	Active	Active	Active	Active		Active
COc1cc(-c2ccc(=O)n(Cc3ccc(C#N)cc3)n2)cc(OC)c1OC [Example 16, 4-((6-Oxo-3-(3,4,5-trimethoxyphenyl)pyridazin-1(6H)-yl)methyl)benzonitrile]	Active	Active			Not Active	Active
Cc1noc(C)c1-c1cc(Nc2ccccc2)c(=O)n(Cc2ccccc2)c1 [Example 72, 1-Benzyl-5-(3,5-dimethylisoxazol-4-yl)-3-(phenylamino)pyridin-2(1H)-one]	Active	Active	Active		Active	Active
Cc1noc(C)c1-c1ccc(=O)n(C(C)c2ccccn2)c1 (stereo not drawn) [Example 112, 5-(3,5-Dimethylisoxazol-4-yl)-1-(1-(pyridin-2-yl)ethyl)pyridin-2(1H)-one]	Active	Active	Not Active			Active
Cc1noc(C)c1-c1ccc(=O)n(Cc2ccc(Cl)c(Cl)c2)c1 [Example 155, 1-(3,4-Dichlorobenzyl)-5-(3,5-dimethylisoxazol-4-yl)pyridin-2(1H)-one]	Active					Active
Cc1noc(C)c1-c1cc(Nc2cccc(F)c2)c(=O)n(Cc2ccccc2)c1 [Example 157, 1-Benzyl-5-(3,5-dimethylisoxazol-4-yl)-3-((3-fluorophenyl)amino)pyridin-2(1H)-one]	Active					Active
Cc1onc(CO)c1-c1ccc(=O)n(Cc2ccccc2)c1 [Example 158, 1-Benzyl-5-(3-(hydroxymethyl)-5-methylisoxazol-4-yl)pyridin-2(1H)-one]	Active					Active
Cc1nscc1-c1ccc(=O)n(Cc2ccccc2)c1 [Example 160, 1-Benzyl-5-(3-methylisothiazol-4-yl)pyridin-2(1H)-one]	Active					Active
CN1CCN(c2ccc(=O)n(Cc3ccccc3)n2)CC1=O [Example 179, 2-benzyl-6-(4-methyl-3-oxopiperazin-1-yl)pyridazin-3(2H)-one]	Active		Active	Active	Active	Active

More lines, main results first:

FRET activity (IC50 <30 μM) BRD4(1) [1]	FRET activity (IC50 <30 μM) BRD2(2) [2]	IL-6 activity (IC50 <30 μM) [3]	Cell Proliferation activity (IC50 <30 μM) [5]	c-myc activity (IC50 <30 μM) [6]	SMILES	ApoA-1 activity (EC170 <30 μM) [4]
Active		Not Active	Not Active	Active	Cc1noc(C)c1-c1cc(Cl)c(=O)n(Cc2ccc(F)cc2)c1 [Example 181, 3-chloro-5-(3,5-dimethylisoxazol-4-yl)-1-(4-fluorobenzyl)pyridin-2(1H)-one]	Active
Active		Active	Not Active	Active	Cc1noc(C)c1-c1cc(Nc2ccccc2)c(=O)n(Cc2ccc(F)cc2)c1 [Example 182, 5-(3,5-dimethylisoxazol-4-yl)-1-(4-fluorobenzyl)-3-(phenylamino)pyridin-2(1H)-one]	Active
Active			Active	Active	Cc1noc(C)c1-c1cc(N2CCC2)c(=O)n(Cc2ccccc2)c1 [Example 183, 3-(Azetidin-1-yl)-1-benzyl-5-(3,5-dimethylisoxazol-4-yl)pyridin-2(1H)-one]	Active
Active			Active	Active	Cc1noc(C)c1-c1cc(Nc2ccn(C)n2)c(=O)n(Cc2ccccc2)c1 [Example 184, 1-benzyl-5-(3,5-dimethylisoxazol-4-yl)-3-((1-methyl-1H-pyrazol-3-yl)amino)pyridin-2(1H)-one]	Active
Active		Not Active	Active	Active	Cc1noc(C)c1-c1cc(-c2cccc(C(N)=O)c2)c(=O)n(Cc2ccccc2)c1 [Example 185, 3-(1-benzyl-5-(3,5-dimethylisoxazol-4-yl)-2-oxo-1,2-dihydropyridin-3-yl)benzamide]	Active
Active		Active			Cc1noc(CO)c1-c1ccc(=O)n(Cc2ccccc2)c1 [Example 214, 1-benzyl-5-(5-(hydroxymethyl)-3-methylisoxazol-4-yl)pyridin-2(1H)-one]	Active
Active		Not Active			Cc1noc(C)c1Nc1cc(-c2c(C)noc2C)cn(Cc2ccccc2)c1=O [Example 217, 1-benzyl-5-(3,5-dimethylisoxazol-4-yl)-3-((3,5-dimethylisoxazol-4-yl)amino)pyridin-2(1H)-one]	Active
Active		Active			C=Cc1ccc(Cn2cc(-c3c(C)noc3C)ccc2=O)cc1 [Example 218, 5-(3,5-Dimethylisoxazol-4-yl)-1-(4-vinylbenzyl)pyridin-2(1H)-one]	Active

Source: patent US9271978B2 (Zenith Epigenetics Corp., priority 2012, dated 2016)
